# Laboratory results published in patent US9045524B2, “Selective caspase inhibitors and uses thereof” (NOVAGENESIS FOUNDATION, priority 2009, dated 2015).
# Key:
# Caspase-9 = Caspase-9 (Homo sapiens (Human), UniProt P55211); test: Caspase-9 Inhibitor Drug Screening Kit, fluorometric (AFC liberation); format: biochemical; settings: 30-minute incubation at 37° C.; approximations of the average values; read-out: Caspase enzymatic activity, IC50 (uM) Caspase 9
# Procedure: The level of inhibition of caspase-1, -3, -5, -7, -9 activity was determined by comparison of the relative fluorescence intensity in samples with or without the compound.
# Caspase-4 = Caspase-4 (Homo sapiens (Human), UniProt P49662); test: Fluorometric enzymatic assay, active recombinant Caspase-4
# Sequence of Caspase-4 (P49662 81-270): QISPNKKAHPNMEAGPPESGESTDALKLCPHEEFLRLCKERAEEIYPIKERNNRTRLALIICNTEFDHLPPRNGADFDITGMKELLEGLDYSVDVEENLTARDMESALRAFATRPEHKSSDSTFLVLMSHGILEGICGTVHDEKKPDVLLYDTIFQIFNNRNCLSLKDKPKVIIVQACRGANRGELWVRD
# Sequence of Caspase-4 (P49662 290-377): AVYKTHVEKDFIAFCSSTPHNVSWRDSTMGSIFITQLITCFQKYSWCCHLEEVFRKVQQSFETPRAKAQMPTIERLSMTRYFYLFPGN
# Procedure: Each dilution of the test compounds was tested in duplicates, whereas the DMSO or Z-VAD-FMK controls were tested in triplicates. […] The inhibition efficiency and the IC50 values of the test compounds were then determined by comparing the fluorescence intensity (FI) of the test compounds with that of the DMSO control.
# [1] = system: proteolytic cleavage of PARP (poly ADP-ribose polymerase) in Hela cells; test: Inhibition of staurosporine-induced PARP cleavage in live Hela cells; format: cell-based
# In short: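 HeLa cells in 96 well plates were exposed for 4 hours to the apoptosis inducer staurosporine with or without test compound. Fixed cells were stained with a fluorescein-labeled anti-cleaved PARP antibody and counterstained with Hoechst33342. Cellomics imaging gave the fraction of nuclei positive for cleaved PARP, and inhibition was computed relative to staurosporine-only treatment.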
# Caspase-2 = Caspase-2 (Homo sapiens (Human), UniProt P42575); test: Fluorometric enzymatic assay, active recombinant Caspase-2; format: biochemical; settings: 10-point titration 0.1 nM to 3.3 μM, 30-minute incubation at 37° C.; read-out: IC50 values (μM) Caspase-2
# Sequence of Caspase-2 (P42575 170-325): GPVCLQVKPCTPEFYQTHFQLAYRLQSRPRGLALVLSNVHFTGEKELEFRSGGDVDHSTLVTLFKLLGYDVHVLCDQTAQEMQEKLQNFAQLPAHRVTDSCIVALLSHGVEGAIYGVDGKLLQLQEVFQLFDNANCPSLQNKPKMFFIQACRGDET
# Sequence of Caspase-2 (P42575 348-452): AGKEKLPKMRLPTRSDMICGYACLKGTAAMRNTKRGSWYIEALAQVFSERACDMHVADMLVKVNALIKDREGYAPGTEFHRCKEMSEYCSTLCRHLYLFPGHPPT
# Procedure: . In brief, each compound was serially diluted for a final test concentration range of 0.1 nM to 3.3 μM (10-point titration). Each active recombinant Caspase (Active Recombinant Caspase Set IV™ (BioVision, Cat# K233-10-25)) was added to the respective wells of the 96-well High Efficiency™ plates (Molecular Devices, Cat#75-000-0005), followed by the addition of the diluted test compounds. DMSO (Final=1%) or Z-VAD-FMK (Caspase-Family Inhibitor, Z-VAD-FMK (BioVision, Cat#1010-100), Final concentration=20 uM) was added in the designated wells as a background control or positive inhibitor control respectively. Each dilution of the test compounds was tested in duplicates, whereas the DMSO or Z-VAD-FMK controls were tested in triplicates. The synthetic peptide substrate specific for each Caspase (BioVision) was then added to the respective wells, which when cleaved by the active caspase releases free AFC that can be quantified by fluorometry. After a 30-minute incubation at 37° C., the plates were read using the Flexstation 3™ with a 400 nm excitation filter and a 505 nm emission filter (cutoff at 495 nm). The inhibition efficiency and the IC50 values of the test compounds were then determined by comparing the fluorescence intensity (FI) of the test compounds with that of the DMSO control.
# The SoftMax Pro Software™ (v5.2 rev C, Molecular Devices) was used for data analysis. The % Inhibition is calculated by: % Inhibition=[FI(DMSO)−FI(test sample)/FI(DMSO)]×100. The % Inhibition vs. Log(concentration) was plotted, and the curve was fitted using the 5-parameter fit of the software.
# Sequence of Caspase-9 (P55211 whole entry): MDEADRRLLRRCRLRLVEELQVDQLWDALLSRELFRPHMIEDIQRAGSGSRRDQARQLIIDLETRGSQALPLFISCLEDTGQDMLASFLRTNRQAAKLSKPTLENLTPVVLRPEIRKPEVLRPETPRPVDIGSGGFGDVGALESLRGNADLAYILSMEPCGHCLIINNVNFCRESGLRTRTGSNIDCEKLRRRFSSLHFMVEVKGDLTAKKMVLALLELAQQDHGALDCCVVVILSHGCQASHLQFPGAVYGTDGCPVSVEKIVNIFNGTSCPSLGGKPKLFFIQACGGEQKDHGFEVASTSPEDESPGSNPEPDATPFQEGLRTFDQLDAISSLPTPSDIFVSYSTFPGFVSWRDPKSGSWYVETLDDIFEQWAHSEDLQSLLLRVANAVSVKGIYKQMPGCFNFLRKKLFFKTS
smiles,measurement,setting,value
"CC(C)[C@H](NC(=O)[C@@H](NC(=O)[C@H](CC(=O)O)NC(=O)OCc1ccccc1)c1ccccc1)C(=O)N[C@H](/C=C/S(C)(=O)=O)CC(=O)O [Compound 53, Z-Asp-Phg-Val-Aspmethyl vinyl sulfone]",IC50,Caspase-9,> 10 µM
same,inhibitory activity towards Caspase-4,Caspase-4; FIG. 5,inhibitory activity
same,IC50,"Caspase-4; read-out: IC50 values (μM) Caspase-4, 10-point titration 0.1 nM to 3.3 μM, 30-minute incubation at 37° C.",2.8 µM
same,effectivity in inhibiting PARP cleavage,"[1]; Hela cells, staurosporine",highly effective relative to DEVD-fmk
same,inhibition at 50 µM,"[1]; Homo sapiens, HeLa, 4 h, read-out: % inhibition of PARP cleavage at 50 uM compound, Hela cells, staurosporine 4 hours, 50 uM compound",> 50%
same,IC50,Caspase-2,> 3.33 µM
